Test system: FP receptor
Assay: porcine eyecup model of ex vivo vasomotricity assay, PGF2α-induced constriction of retinal microvessels
Text: In order to see if the peptides could inhibit FP function using an ex vivo model, we chose porcine eyecup model, an ex vivo assay of vascular constriction in porcine retinas which we previously described and validated (Li et al., 1996 J. Pharmacol. Expt. Therapeut. 278: 370-377; Li et al., 1997 Am. J. Physiol. 273: R1283-90; Abran et al., 1997 Am. J. Physiol. 272: R995-1001). Since FP receptor densities in newborn vasculature are minimal due to down regulation by high levels of circulating prostaglandins in the perinatal period, the newborn pigs were treated with a prostaglandin synthetase blocker, ibuprofen (30 mg/Kg of bodyweight/ 8 h for 24 h) to increase the density of the receptors as well as their vasomotor effects. By inhibiting circulating prostaglandins; we were able to show potent inhibition of FP receptor-mediated second messenger synthesis as well as FP-mediated vascular constriction in this eyecup model.
The preparations were allowed to stabilize for 30 min.
Vascular diameter was recorded before and 10 min following the topical application of the agent.
Small letters indicate L-amino acids and capital letters indicate D- amino acids. I = isoleucine; L= leucine; G =glycine; H=histidine, R=Arginine; D=Aspartic acid; Y=Tyrosine; […]; A-Alanine; W= Tryptophan; E-Glutamic acid; F= Phenyl alanine; Q=Glutamine; N=Aspargine; P=Proline; S=Serine; X=Cyclohexyl alanine.

For “ILGHKDYK [PCP-13.13, R to K variant of PCP-13]”, the “%Vasomotor response (of constriction)” value (100 µM peptide added 30 min before 10^-7 M PGF2α, relative to maximal constriction in the absence of peptide) was 36.9%, the “% inhibition of maximal max. response” value (100 µM peptide, 10^-7 M PGF2α, calculated as 100 - per cent vasomotor response) was 63.1% and the “change of inhibitory activity relative to the parent peptide (in words)” value (peptides at 100 µM, compared with PCP-13 (PCP-13 and PCP-11 with PCP-8, PCP-12 with PCP-10)) was “affected the activity of PCP-13 moderately”.

Reference: patent EP1114151B1, “G PROTEIN-COUPLED RECEPTOR ANTAGONISTS” (Hopital Sainte-Justine, priority 1998, dated 2011)
